Paper PMC12795676, “Integrin α5β1 mediates the inhibitory effects of vasoinhibin on angiogenesis and vascular permeability [drawing 1]” (The Journal of Biological Chemistry, 2025)
“Also recorded” adds a separate entry of the source. Residues, ends and D or L forms follow the SMILES beside them. No end group written: not given here. *: point of attachment. Biotin = O=C1N[C@H]2[C@H](CS[C@H]2CCCCC(=O)*)N1

How the values were obtained:
integrin α5β1 [1] = target: T1, integrin α5β1 (Homo sapiens, UniProt P05556+P08648); assay: ELISA, binding to immobilized integrin α5β1; details: dose-dependent, plates coated with 2 μg mL^−1
T1 construct: purchased Bio-Techne
Experimental: (§1) Vi ([49]) and its mutants were produced as reported ([14]). HUVECs were cultured as reported ([14], [50]).
(§2) Plates coated with 2 μg mL^−1 integrin α5β1, PAI-1, or PAI-1-uPA complex (37 °C, 10 min) were incubated with B-Vi45-51, Vi, or 100 nM ViH46A, ViR48A, or ViH46A/R48A. Competition used excess Src, alanine mutants, or THGR peptides. Detection used horseradish peroxidase antibodies and 3,3′,5,5′-tetramethylbenzidine.

PAI-1 [2] = target: T2, PAI-1 (Homo sapiens, UniProt P05121); assay: ELISA, binding to immobilized PAI-1
Experimental: as §2

PAI-1-uPA complex = PAI-1-uPA complex (Homo sapiens, UniProt P00749+P05121); assay: ELISA, binding to immobilized PAI-1-uPA complex; details: for Binding to immobilized PAI-1-uPA complex: plates coated with 2 μg mL^−1
Experimental: as §2

HUVECs [3] = assay: Endothelial cell proliferation (EdU); type: cell-based, human; details: 24 h; for Effect of ITGA5 knockdown on inhibition of endothelial proliferation: 100 nM Vi or Vi45-51, bFGF + VEGF, shITGA5 HUVEC vs WT; for Effect of anti-α5β1 antibody on inhibition of VEGF + bFGF-induced proliferation: 100 nM Vi or Vi45-51, 20 μg mL^−1 anti-α5β1
Experimental: As reported ([14]), HUVECs were serum-starved for 8 h and treated with 100 nM Vi45-51 or Vi, bFGF + VEGF, and 20 μg mL^−1 anti-α5β1 antibody in 20% fetal bovine serum for 24 h. EdU incorporation was detected with Azide Fluor 545 (Sigma).

HUVECs [4] = assay: Matrigel invasion; type: cell-based, human; details: 100 nM Vi or Vi45-51, 16 h; shITGA5 HUVEC vs WT
Experimental: As reported ([14]), HUVECs on Matrigel-coated Transwells were treated with 100 nM of Vi45-51 or Vi. After 16 h, invading cells were counted.

HUVECs [5] = assay: Tube formation on Matrigel; type: cell-based, human; details: 100 nM Vi or Vi45-51, 6 h; shITGA5 HUVEC vs WT
Experimental: HUVEC tubular network formation was evaluated as reported ([14], [51]). HUVECs were seeded on Matrigel and treated with 100 nM Vi or Vi45-51 for 6 h. Micrographs were analyzed by Angiogenesis Analyzer ([52]).

HUVEC monolayers = assay: Endothelial permeability (TEER); type: cell-based, human; details: 100 nM Vi or Vi45-51 for 1 h, then 50 ng mL^−1 VEGF; TEER 120 min; n = 6
Experimental: HUVECs were grown to confluency on 0.4 μm pore Transwells, treated with 100 nM Vi45-51 or Vi for 1 h, then stimulated with 50 ng mL^−1 VEGF. Transendothelial electrical resistance was recorded for 120 min using the EVOM2 meter (World Precision Instruments).

HUVECs [6] = assay: Apoptosis (Cell Death Detection ELISA); type: cell-based, human; details: 100 nM Vi, 24 h; shITGA5 HUVEC vs WT
Experimental: As reported ([13]), HUVEC were treated with 100 nM Vi or Vi45-51 for 24 h, and apoptosis was analyzed using the Cell Death Detection ELISA kit (Roche).

[7] = test system: Matrigel plug vascularization (Pecam1); assay: Matrigel plug assay; type: in vivo, male C57BL/6 mice; details: mice, s.c. plugs, 100 nM Vi or Vi45-51, bFGF + VEGF, 20 μg mL^−1 anti-α5β1; 7 days; Pecam1 mRNA
Experimental: As previously described ([14], [53], [54]), 6-week-old male C57BL/6 mice were subcutaneously injected with two 0.5 ml plugs supplemented with 300 ng mL^−1 bFGF and 100 ng mL^−1 VEGF, 100 nM Vi or Vi45-51, and 20 μg mL^−1 anti-integrin α5β1 antibody. After 7 days, plugs were collected, and Pecam1, relative to GAPDH, was quantified by quantitative PCR as reported ([14]). Procedures followed institutional ethical approval (Bioethics Committee, Instituto de Neurobiología, UNAM) and were in accordance with the Guide for the Care and Use of Laboratory Animals (http://www.ncbi.nlm.nih.gov/books/NBK54050/).

PAI-1 knockout mice = details: cited from earlier work
Source text: The HGR motif is the sole antiangiogenic determinant of Vi, as its mutation leads to the loss of Vi’s antiangiogenic function ([14]). Given that Vi binds to integrin α5β1 via its HGR motif and that knockdown of ITGA5 abolishes the effects of Vi on endothelial cell proliferation, invasion, vascular permeability, and tube formation in vitro, while an antibody against integrin α5β1 suppresses the antiangiogenic effect of Vi in the in vivo Matrigel plug assay, integrin α5β1 emerges as the binding partner mediating the antiangiogenic activity of Vi. Integrin α5β1 is critical for angiogenesis ([16]) ...

endothelial cells [8] = details: cited from earlier work
PAI-1 [9] = target: T2, PAI-1; details: cited from earlier work
Source text: We recently identified two distinct functional motifs in the Vi molecule: the HGR and the HNLSSEM motifs. […] These discrep ...

integrin α5β1 [10] = target: T1, integrin α5β1; assay: Competitive ELISA, B-Vi45-51 binding to immobilized integrin α5β1; details: excess competitor
Experimental: as §1, §2

[11] = test system: HUVEC adhesion to fibronectin; assay: HUVEC adhesion to fibronectin; type: cell-based, human; details: 1 h
Experimental: HUVECs (43,000 cells cm^−2) were added and incubated at 37 °C for 1 h. Cells were washed twice and quantified by 3-(4,5-dimethylthiazol-2-yl)-2,5-diphenyltetrazolium bromide.

endothelial cells [12] = details: cited from earlier work; remark: listed apart in the source
integrin α5 = assay: Pull-down and Western blot, integrin α5; type: binding, human (HUVEC lysates)
Experimental: (§3) To test whether Vi’s HGR motif binds integrin α5β1, human umbilical vein endothelial cells (HUVECs) were treated with a biotinylated peptide comprising residues 45 to 51 (B-Vi45-51) and subjected to pull-down and Western blot.
(§4) HUVECs treated with 500 nM B-Vi45-51, 20 ng mL^−1 bFGF, and 25 ng mL^−1 VEGF for 1 h were lysated in radioimmunoprecipitation assay, sonicated, incubated 30 min at 37 °C, and pulled down with Dynabeads Streptavidin T1 (Thermo). Eluates were analyzed by a Western blot for integrin α5, PAI-1, and uPAR.

PAI-1 [13] = assay: Pull-down and Western blot, PAI-1; type: binding, human (HUVEC lysates); details: HUVEC lysates; 500 nM B-Vi45-51, 1 h; Western blot
Experimental: as §3, §4

uPAR = assay: Pull-down and Western blot, uPAR; type: binding, human (HUVEC lysates); details: HUVEC lysates; 500 nM B-Vi45-51, 1 h; Western blot
Experimental: as §3, §4

integrin α5β1 [14] = target: T1, integrin α5β1; assay: Competitive ELISA, Vi binding to integrin α5β1; details: excess competitor
Experimental: as §1, §2

Molecule: vasoinhibin [Vi]
- Binding to immobilized integrin α5β1 (integrin α5β1 [1]): bound all three
- Kd (PAI-1 [2]; immobilized PAI-1, at least three independent experiments): 528 nM
- Binding to immobilized PAI-1 (PAI-1 [2]; plates coated with 2 μg mL^−1): bound all three
- Kd (PAI-1-uPA complex; immobilized PAI-1-uPA complex, at least three independent experiments): 406 nM
- Binding to immobilized PAI-1-uPA complex (PAI-1-uPA complex): bound all three
- Effect of ITGA5 knockdown on inhibition of endothelial proliferation (HUVECs [3]): abolished the inhibitory effects
- Effect of anti-α5β1 antibody on inhibition of VEGF + bFGF-induced proliferation (HUVECs [3]): prevented the inhibitory effects
- Effect of ITGA5 knockdown on inhibition of invasion (HUVECs [4]): abolished the inhibitory effects
- Effect of ITGA5 knockdown on inhibition of tube formation (HUVECs [5]): abolished the inhibitory effects
- Effect of ITGA5 silencing on inhibition of VEGF-induced permeability (HUVEC monolayers): ablated the inhibitory effect
- Effect of ITGA5 knockdown on Vi-induced apoptosis (HUVECs [6]): did not abolish Vi-induced apoptosis; in fact, it was even slightly increased; also recorded: did not prevent, but slightly enhanced
- Effect of anti-α5β1 antibody on inhibition of Matrigel plug vascularization [7]: prevented the inhibitory effects
- Antiangiogenic and antitumor effects in PAI-1 knockout mice (PAI-1 knockout mice): lost in PAI-1 knockout mice
- Effect of antibodies against integrin α5β1 on Vi-induced endothelial cell apoptosis (endothelial cells [8]): partially prevented

Molecule: HNLSSEM [HNLSSEM motif]
- Binding to PAI-1 (literature) (PAI-1 [9]): mediates Vi binding to PAI-1
- Apoptosis induction via uPAR-dependent mechanism (endothelial cells [8]): induces endothelial apoptosis through a uPAR-dependent mechanism

Molecule: R48A: Vi45-51 mutated by alanine in R48 (THGAGFI)
- Inhibition of B-Vi45-51 binding to integrin α5β1 (integrin α5β1 [10]): abolished inhibition
- HUVEC adhesion to fibronectin, dose–response ([11]; fibronectin 1 μg cm^−2, 37 °C): did not

Molecule: Ac-PHSCN-NH2 [ATN-161, PHSRN-based peptide (Ac-PHSCN-NH2), reference compound]
- Induction of apoptosis (anoikis) (endothelial cells [8]): induce apoptosis through anoikis
- Disruption of endothelial adhesion (endothelial cells [12]): disrupt endothelial adhesion

Molecule: H46A: alanine-scanning mutant peptide, alanine substitution at H46 (TAGRGFI)
- Inhibition of B-Vi45-51 binding to integrin α5β1 (integrin α5β1 [10]): abolished inhibition

Molecule: THGRGFI [Vi45-51]
- Inhibition of B-Vi45-51 binding to integrin α5β1 (integrin α5β1 [10]): inhibited B-Vi45-51 binding
- HUVEC adhesion to fibronectin at 1 μM ([11]; 1 μM, fibronectin 1 μg cm^−2, 37 °C, Fig. 4C): enhanced fibronectin-mediated adhesion
- EC50 [11]: 4.55 nM
- HUVEC adhesion to fibronectin, dose–response ([11]; fibronectin 1 μg cm^−2, 37 °C): increased the adhesion in a dose-dependent manner
- Effect of ITGA5 knockdown on inhibition of endothelial proliferation (HUVECs [3]): abolished the inhibitory effects
- Effect of anti-α5β1 antibody on inhibition of VEGF + bFGF-induced proliferation (HUVECs [3]): prevented the inhibitory effects
- Effect of ITGA5 knockdown on inhibition of invasion (HUVECs [4]): abolished the inhibitory effects
- Effect of ITGA5 knockdown on inhibition of tube formation (HUVECs [5]): abolished the inhibitory effects
- Effect of ITGA5 silencing on inhibition of VEGF-induced permeability (HUVEC monolayers): ablated the inhibitory effect
- Effect of anti-α5β1 antibody on inhibition of Matrigel plug vascularization [7]: prevented the inhibitory effects

Molecule: CC[C@H](C)[C@H](NC(=O)[C@H](Cc1ccccc1)NC(=O)CNC(=O)[C@H](CCCNC(=N)N)NC(=O)CNC(=O)[C@H](Cc1c[nH]cn1)NC(=O)[C@@H](NC(=O)CCCC[C@@H]1SC[C@@H]2NC(=O)N[C@@H]21)[C@@H](C)O)C(=O)O [B-Vi45-51] (Biotin-THGRGFI-OH; N-terminus and C-terminus assumed)
- Pull-down of integrin α5 (integrin α5; HUVEC lysates, 500 nM B-Vi45-51, 1 h, Dynabeads Streptavidin T1, Western blot, ∼145 kDa): Integrin α5 was precipitated
- Effect of VEGF + bFGF on pull-down of integrin α5 (integrin α5; HUVECs, 500 nM B-Vi45-51, 20 ng mL^−1 bFGF, 25 ng mL^−1 VEGF, 1 h): did not affect binding
- Pull-down of PAI-1 (PAI-1 [13]): failed to pull down
- Pull-down of uPAR (uPAR): failed to pull down
- Binding to immobilized integrin α5β1 (integrin α5β1 [1]): dose-dependent binding
- Binding to immobilized PAI-1-uPA complex (PAI-1-uPA complex): not to PAI-1 or the PAI-1-uPA complex

Molecule: THGR [HGR-containing tetrapeptide THGR]
- Inhibition of Vi binding to integrin α5β1 (integrin α5β1 [14]): blocked Vi–integrin interaction

Molecule: cilengitide [reference compound]
- Induction of apoptosis (anoikis) (endothelial cells [8]): induce apoptosis through anoikis
- Disruption of endothelial adhesion (endothelial cells [12]): disrupt endothelial adhesion

Molecule: N=C(N)NCCC[C@H](N)C(=O)NCC(=O)N[C@@H](CC(=O)O)C(=O)O [RGD, reference compound]
- IC50 ([11]; dose–response, fibronectin 1 μg cm^−2, 37 °C, MTT read-out, nonlinear regression (r^2 > 0.8), at least three independent experiments, read-out: IC50, inhibition of HUVEC adhesion to fibronectin): 61.3 nM
